Each structure is given as a SMILES string. Counter-ions that a name gives are not always drawn.

This passage reports melting point, IC50 and ED50 results from patent US6800648B2, “Antipsychotic aminomethyl derivatives of 7,8-dihydro-3H-1,6,9-trioxa-3-AZA-cyclopenta[a]naphthalen-2-one” (Wyeth, priority 2001, dated 2004).

For series [1], the target named is T1, dopamine D2 receptor (Rattus norvegicus, UniProt P61169).
T1 construct: from tissue; host or cells: rat striatal brain tissue homogenate
The experiment in a line: Dopamine D2 receptor affinity, 3H-quinpirole binding in homogenized rat striatal brain tissue. As for the experimental part:
Affinity for the dopamine D2 receptor was established by a modification of the standard experimental test procedure of Seemen and Schaus, European Journal of Pharmacology 203: 105-109, 1991, wherein homogenized rat striatal brain tissue is incubated with ^3H-quinpirole and various concentrations of test compound, filtered and washed and counted in a Betaplate scintillation counter.

In series [2] the test system is mouse locomotor activity. In words: Reduction of mouse locomotor activity (functional antagonism of dopamine receptors in vivo). Conditions: mice (male, CF-1), sc, horizontal activity counts 10 to 20 minutes after dosing. On the procedure: The antipsychotic activity of the compounds of the invention was established by a determination of functional antagonism of dopamine receptors in vivo, specifically the compounds' ability to reduce mouse locomotor activity according to the method of Martin and Bendensky, J. Pharmacol. Exp. Therap. 229: 706-711, 1984, in which mice (male, CF-1, Charles River, 20-30 g) were injected with vehicle or various doses of each drug and locomotor activity was measured for 30 minutes using automated infrared activity monitors (Omnitech—8×8 inch open field) located in a darkened room. ED50's were calculated from the horizontal activity counts collected from 10 to 20 minutes after dosing using a nonlinear regression analysis with inverse prediction.

T1 sequence (P61169 whole entry): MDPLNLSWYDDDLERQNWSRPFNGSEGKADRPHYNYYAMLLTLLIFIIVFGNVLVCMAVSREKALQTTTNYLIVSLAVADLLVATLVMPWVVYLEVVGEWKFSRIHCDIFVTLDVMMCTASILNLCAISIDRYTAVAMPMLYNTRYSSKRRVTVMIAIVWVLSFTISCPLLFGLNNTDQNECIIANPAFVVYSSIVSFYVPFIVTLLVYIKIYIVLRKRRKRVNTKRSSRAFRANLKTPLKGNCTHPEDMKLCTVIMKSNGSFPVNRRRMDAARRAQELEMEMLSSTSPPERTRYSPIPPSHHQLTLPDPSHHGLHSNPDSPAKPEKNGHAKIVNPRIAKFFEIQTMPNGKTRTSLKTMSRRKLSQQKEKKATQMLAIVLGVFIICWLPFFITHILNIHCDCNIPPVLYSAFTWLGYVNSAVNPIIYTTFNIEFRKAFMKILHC

Consider `O=c1[nH]c2ccc3c(c2o1)OC(CN1CC=C(c2c[nH]c4ccccc24)CC1)CO3` (stereo not shown), for which the melting point – broadly, the temperature, or range, at which the solid turns liquid – stood at 202 °C.
In turn, `NCC1COc2ccc3[nH]c(=O)oc3c2O1` (stereo not shown) (as salt: HCl) [Example 1, 8-Aminomethyl-7,8-dihydro-3H-1,6,9-trioxa-3-aza-cyclopenta[a]naphthalen-2-one] came in with a melting point of over 250 °C.
Take `O=c1[nH]c2ccc3c(c2o1)OC(CNCc1ccccc1)CO3` (stereo not shown) (as salt: fumarate) (hydrate or solvate) [Example 2, 8-(Benzylamino-methyl)-7,8-dihydro-3H-1,6,9-trioxa-3-aza-cyclopenta[a]naphthalen-2-one]: the melting point came out at 220 °C.
With `O=c1[nH]c2ccc3c(c2o1)OC(CNCCCCc1ccccc1)CO3` (stereo not shown) (as salt: fumarate) (hydrate or solvate) [Example 4, 8-[(4-Phenyl-butylamino)-methyl]-7,8-dihydro-3H-1,6,9-trioxa-3-aza-cyclopenta[a]naphthalen-2-one], the melting point lay within 215 to 218 °C.
With `NCC1COc2ccc3[nH]c(=O)oc3c2O1` (stereo not shown) [Example 1, 8-Aminomethyl-7,8-dihydro-3H-1,6,9-trioxa-3-aza-cyclopenta[a]naphthalen-2-one], in series [1], the IC50 (as a rule, the midpoint of a concentration-inhibition curve) came to 3.7 nM.
On the same count and under the same terms, the same measure for `O=c1[nH]c2ccc3c(c2o1)OC(CNCc1ccccc1)CO3` (stereo not shown) [Example 2, 8-(Benzylamino-methyl)-7,8-dihydro-3H-1,6,9-trioxa-3-aza-cyclopenta[a]naphthalen-2-one]: 0.16 nM.
In turn, `O=c1[nH]c2ccc3c(c2o1)OC(CN(Cc1ccccc1)Cc1ccccc1)CO3` (stereo not shown) [Example 3, 8-[(Dibenzylamino)-methyl]-7,8-dihydro-3H-1,6,9-trioxa-3-aza-cyclopenta[a]naphthalen-2-one] gave a melting point of 210 °C. In addition, the ED50 (commonly the midpoint of the dose-response relation) in series [2] is at least 50 mg/kg. Further, the IC50 in series [1] stood at 475 nM.
`O=c1[nH]c2ccc3c(c2o1)OC(CNCCCCc1ccccc1)CO3` (stereo not shown) [Example 4, 8-[(4-Phenyl-butylamino)-methyl]-7,8-dihydro-3H-1,6,9-trioxa-3-aza-cyclopenta[a]naphthalen-2-one]: the IC50 in series [1] turned out to be 2 nM.
